Measurements reported in article PMC10044120, “Potent and selective covalent inhibition of the papain-like protease from SARS-CoV-2” (Nature Communications, 2023).
Several values for one entry are separate records, joined by “and”; a condition that tells them apart may be missing. Identical values can stand only once. Like-named read-outs stand apart in the source and are kept apart here.

Key:
[1] = Metabolic stability in rat liver microsomes; conditions: Sprague-Dawley
in vitro [2] = conditions: African green monkey
[3] = Metabolic stability in human liver microsomes
[4] = tested on: SARS-CoV-2 isolate USA-WA1/2020; conditions: for inhibition: read-out: cytopathic effect, % cell viability, duplicate wells
[5] = Metabolic stability in mouse liver microsomes; conditions: CD-1, mouse
[6] = Metabolic stability in mouse liver S9 fraction; conditions: CD-1, mouse
[7] = Metabolic stability in human liver S9 fraction
UCHL1 = biological target: T1, UCHL1 (Homo sapiens, UniProt P09936); assay: biochemical; conditions: UCHL1 10 nM, Ub-rhodamine110
T1 construct: purchased LifeSensors, Inc. (Malvern, PA)
T1 sequence (P09936 whole entry): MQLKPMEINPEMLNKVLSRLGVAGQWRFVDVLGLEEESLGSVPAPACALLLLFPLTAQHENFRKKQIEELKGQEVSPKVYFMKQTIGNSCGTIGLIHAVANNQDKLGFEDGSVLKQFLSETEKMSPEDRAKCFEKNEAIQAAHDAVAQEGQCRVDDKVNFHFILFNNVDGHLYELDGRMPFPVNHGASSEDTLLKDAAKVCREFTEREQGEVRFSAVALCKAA

USP4 = biological target: T2, USP4 (Homo sapiens, UniProt Q13107); assay: DUB selectivity assay, USP4 (Ub-rhodamine110); assay type: biochemical
T2 construct: purchased LifeSensors, Inc. (Malvern, PA)
T2 sequence (Q13107 1-963): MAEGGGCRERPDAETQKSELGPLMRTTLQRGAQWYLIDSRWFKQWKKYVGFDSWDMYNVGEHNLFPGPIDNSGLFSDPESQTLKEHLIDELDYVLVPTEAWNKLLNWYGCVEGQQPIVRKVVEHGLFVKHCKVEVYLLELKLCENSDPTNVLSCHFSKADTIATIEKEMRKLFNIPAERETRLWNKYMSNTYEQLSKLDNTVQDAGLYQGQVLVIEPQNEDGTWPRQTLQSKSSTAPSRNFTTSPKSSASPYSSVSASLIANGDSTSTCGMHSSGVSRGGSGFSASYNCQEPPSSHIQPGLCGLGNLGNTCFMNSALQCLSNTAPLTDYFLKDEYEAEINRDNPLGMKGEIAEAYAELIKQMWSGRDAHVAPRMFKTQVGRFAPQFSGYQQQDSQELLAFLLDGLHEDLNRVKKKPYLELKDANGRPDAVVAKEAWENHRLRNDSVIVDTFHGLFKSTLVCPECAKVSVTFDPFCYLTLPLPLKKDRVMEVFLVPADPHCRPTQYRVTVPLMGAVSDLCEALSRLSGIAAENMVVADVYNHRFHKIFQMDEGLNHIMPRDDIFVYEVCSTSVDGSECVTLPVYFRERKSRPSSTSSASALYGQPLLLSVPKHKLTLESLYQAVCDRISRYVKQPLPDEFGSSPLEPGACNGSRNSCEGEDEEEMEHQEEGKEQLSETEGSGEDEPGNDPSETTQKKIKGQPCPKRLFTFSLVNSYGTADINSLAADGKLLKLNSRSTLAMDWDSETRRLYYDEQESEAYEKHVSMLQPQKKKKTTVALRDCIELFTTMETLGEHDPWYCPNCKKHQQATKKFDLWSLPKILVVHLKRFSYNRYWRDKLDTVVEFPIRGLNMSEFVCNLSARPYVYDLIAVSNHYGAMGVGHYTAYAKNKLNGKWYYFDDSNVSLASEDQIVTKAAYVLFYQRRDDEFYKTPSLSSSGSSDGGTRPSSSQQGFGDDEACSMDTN

SARS-CoV-2 USA-WA1/2020 [8] = assay: microbe, parasite or virus in culture; assay type: cell-based; conditions: for Virus Titer: USA-WA1/2020
[9] = tested on: SARS-CoV-2 Delta (B.1.617.2); assay: CPE assay, neutral red, Vero E6 cells with 2 μM CP-100356, Delta; assay type: cell-based; conditions: Severe acute respiratory syndrome coronavirus 2, Vero C1008
SARS-CoV-2 USA-WA1/2020 [10] = assay: CPE assay, neutral red, Vero E6 cells with 2 μM CP-100356, USA-WA1/2020; assay type: cell-based; conditions: for Percent Cytopathic Effect (Neutral Red): USA-WA1/2020
[11] = tested on: SARS-CoV-2 Omicron (B.1.1.529); assay: CPE assay, neutral red, Vero E6 cells with 2 μM CP-100356, Omicron; assay type: cell-based; conditions: Severe acute respiratory syndrome coronavirus 2, Vero C1008
[12] = Pharmacokinetics in male ICR mice (IV and PO)
in vitro [13] = conditions: African green monkey; remark: listed apart in the source
[14] = biological target: full-length SARS-CoV-2 hemagglutinin (HA)-Nsp3 (Severe acute respiratory syndrome coronavirus 2, UniProt P0DTD1); assay: biochemical
[15] = tested on: SARS-CoV-2 Delta (B.1.617.2); assay: microbe, parasite or virus in culture; assay type: cell-based; conditions: Severe acute respiratory syndrome coronavirus 2; Delta (B1.617.2), Caco-2
[16] = tested on: SARS-CoV-2 Omicron (B.1.1.529); assay: microbe, parasite or virus in culture; assay type: cell-based; conditions: Severe acute respiratory syndrome coronavirus 2; Omicron (B1.1.529), Caco-2
[17] = male, ICR (CD-1), mouse, plasma, iv, 3 mg/kg

With `C[C@@H](NC(=O)c1ccccc1CCC(=O)NNC(=O)CCl)c1cccc2ccccc12` [Compound 9, (R)-2-(3-(2-(2-chloroacetyl)hydrazineyl)-3-oxopropyl)-N-(1-(naphthalen-1-yl)ethyl)benzamide] the half-life [1] was 13 min, the microsomal CLint [1] was 515 µL/min/mg and the CC50 at 48 h (in vitro [2]; CC50) was > 30 µM. It also gave a viability at 48 h, 2.08 µM (in vitro [2]; cytotoxicity, %cell viability) of 102%, a viability at 48 h, 8.33 µM (in vitro [2]; cytotoxicity, %cell viability) of 99.1% and a viability at 48 h, 16.65 µM (in vitro [2]; cytotoxicity, %cell viability) of 91.4%. For the same compound, the half-life [3] was 7 min, the microsomal CLint [3] was 975 µL/min/mg and the inhibition ([4]; [inhibitor] 2.08 uM, 2.08 µM) was 12%. The inhibition ([4]; [inhibitor] 8.33 uM, 8.33 µM) was 17.9%, the inhibition ([4]; [inhibitor] 16.65 uM, 16.65 µM) was 21% and the half-life [5] was 5 min. For the same compound, the microsomal CLint [5] was 1330 µL/min/mg, the half-life [6] was 4 min and the microsomal CLint [6] was 544 µL/min/mg. For the same compound, the half-life [7] was 3 min, the microsomal CLint [7] was 689 µL/min/mg and the IC50 (UCHL1) was > 30 µM. The IC50 (USP4; USP4 10 nM, Ub-rhodamine110, read-out: IC50) was > 30 µM.
For `COC(=O)/C=C/C(=O)NNC(=O)CCc1ccccc1C(=O)N[C@H](C)c1cccc2ccccc12` [Compound 7, methyl(R,E)-4-(2-(3-(2-((1-(naphthalen-1 yl)ethyl)carbamoyl)phenyl)propanoyl)hydrazineyl)-4-oxobut-2-enoate], the CC50 (Caco-2 cells; Caco-2, Delta rows) was > 10 µM, the CC50 (Caco-2 cells; Caco-2, Omicron rows) was > 10 µM and the EC90 (SARS-CoV-2 USA-WA1/2020 [8]; Severe acute respiratory syndrome coronavirus 2, Caco-2) was 260 nM. The “Virus Titer” value (SARS-CoV-2 USA-WA1/2020 [8]; 0.01 µM) was 4.0 CCID50/mL (Log10), the “Virus Titer” value (SARS-CoV-2 USA-WA1/2020 [8]; 0.1 µM) was 1.7 CCID50/mL (Log10) and the “Virus Titer” value (SARS-CoV-2 USA-WA1/2020 [8]; 1 µM) was <0.7 CCID50/mL (Log10). For the same compound, the “Virus Titer” value (SARS-CoV-2 USA-WA1/2020 [8]; 10 µM) was <0.7 CCID50/mL (Log10), the EC50 [9] was 290 nM and the EC50 (SARS-CoV-2 USA-WA1/2020 [10]; Severe acute respiratory syndrome coronavirus 2, Vero C1008) was 68 nM. The “Percent Cytopathic Effect (Neutral Red)” value (SARS-CoV-2 USA-WA1/2020 [10]; 0.01 µM) was 90.5%, the “Percent Cytopathic Effect (Neutral Red)” value (SARS-CoV-2 USA-WA1/2020 [10]; 0.1 µM) was 41.8% and the “Percent Cytopathic Effect (Neutral Red)” value (SARS-CoV-2 USA-WA1/2020 [10]; 1 µM) was 46.4%. The “Percent Cytopathic Effect (Neutral Red)” value (SARS-CoV-2 USA-WA1/2020 [10]; 10 µM) was 13.5%, the EC50 [11] was 680 nM and the “oral bioavailability / exposure following PO dosing” value ([12]; 10 mg/kg p.o., male ICR mice) was “not orally bioavailable”. For the same compound, the AUC(0-inf) [12, 17] was 5 ng·h/mL, the AUC(0-t) [12, 17] was 4 ng·h/mL and the C0 [12, 17] was 63 ng/mL. It also gave a Vd [12, 17] of 35.2 L/kg, a half-life [12, 17] of 3.6 min and a half-life [1] of 46 min. For the same compound, the microsomal CLint [1] was 151 µL/min/mg, the CC50 (in vitro [13]) was > 10 µM and the cytotoxicity at 0.01 µM (in vitro [13]) was 6.3%. It also gave a cytotoxicity at 0.1 µM (in vitro [13]) of 1.1%, a cytotoxicity at 1 µM (in vitro [13]) of 3.3% and a cytotoxicity at 10 µM (in vitro [13]) of 27.4%. It also gave a cytotoxicity at 0.01 µM (in vitro [13]; Percent Cytotoxicity (Neutral Red), Vero E6, SARS2-733 (Delta set), 0.01 µM) of 11.8%, a cytotoxicity at 0.1 µM (in vitro [13]; Percent Cytotoxicity (Neutral Red), Vero E6, SARS2-733 (Delta set), 0.1 µM) of 7.1% and a cytotoxicity at 1 µM (in vitro [13]; Percent Cytotoxicity (Neutral Red), Vero E6, SARS2-733 (Delta set), 1 µM) of 4.8%. The cytotoxicity at 10 µM (in vitro [13]; Percent Cytotoxicity (Neutral Red), Vero E6, SARS2-733 (Delta set), 10 µM) was 9.3%, the cytotoxicity at 0.01 µM (in vitro [13]; Percent Cytotoxicity (Neutral Red), Vero E6, SARS2-735, 0.01 µM) was 0% and the cytotoxicity at 0.1 µM (in vitro [13]; Percent Cytotoxicity (Neutral Red), Vero E6, SARS2-735, 0.1 µM) was 0%. It also gave a cytotoxicity at 1 µM (in vitro [13]; Percent Cytotoxicity (Neutral Red), Vero E6, SARS2-735, 1 µM) of 3.8%, a cytotoxicity at 10 µM (in vitro [13]; Percent Cytotoxicity (Neutral Red), Vero E6, SARS2-735, 10 µM) of 38.5% and an inhibition at 0.003 µM ([14]; 0.003 uM, read-out: Percent Nsp3 inhibition) of -4%. For the same compound, the “Percent Nsp3 inhibition” value ([14]; 1.852 uM) was 84.0%, the inhibition at 1.852 µM ([14]; 1.852 uM, read-out: Percent Nsp3 inhibition) was 83.9% and the “Percent Nsp3 inhibition” value ([14]; 50.000 uM) was 89.9%. It also gave an inhibition at 50 µM ([14]; 50.000 uM, read-out: Percent Nsp3 inhibition) of 90.7%, a half-life [3] of 50 min and a microsomal CLint [3] of 139 µL/min/mg. For the same compound, the “% cell viability, cytopathic effect” value ([4]; 2.08 uM) was 64.9953%, the “% cell viability, cytopathic effect” value ([4]; 8.33 uM) was 95.2833% and 73.4931% and the “% cell viability, cytopathic effect” value ([4]; 16.65 uM) was 97.0077%. The inhibition ([4]; [inhibitor] 2.08 uM, 2.08 µM) was 65%, the inhibition ([4]; [inhibitor] 8.33 uM, 8.33 µM) was 95.3% and 73.5% and the inhibition ([4]; [inhibitor] 16.65 uM, 16.65 µM) was 97%. The half-life [5] was 13 min, the microsomal CLint [5] was 540 µL/min/mg and the EC90 [15] was > 10 µM. The half-life [6] was 9 min, the microsomal CLint [6] was 266 µL/min/mg and the half-life [7] was 60 min. The microsomal CLint [7] was 38.9 µL/min/mg, the IC50 (UCHL1) was > 30 µM and the IC50 (USP4) was > 30 µM. For the same compound, the CC50 (Vero E6 cells; Vero E6, 2 μM CP-100356, Delta rows) was > 10 µM, the CC50 (Vero E6 cells; Vero E6, 2 μM CP-100356, Omicron rows) was > 10 µM and the EC90 [16] was 2400 nM.
